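Growth conditions: 96-well plates. Treatment: test compound, 48 hours, 5 concentrations. Analysis: linear interpolation between bracketing concentrations; unreached endpoints set to highest concentration. Here, GI50 denotes the concentration required for 50% inhibition of growth. TGI is the concentration that stops growth completely.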
Legend:
Assay in all cases: inhibition of tumour cell growth, NCI panel, 48 h
[1] = test system: HOP-62 NSCLC
[2] = test system: NCI-H460 lung
[3] = test system: HCT-116 colon
[4] = test system: MDA-MB-435
[5] = test system: HS 578T breast
[6] = test system: SK-MEL-2 melanoma
[7] = test system: HOP-92 NSCLC
[8] = test system: PC-3 prostate
[9] = test system: OVCAR-8 ovarian
[10] = test system: ACHN renal
[11] = test system: EKVX NSCLC
[12] = test system: 786-0 renal
[13] = test system: MCF7 breast
[14] = test system: UO-31 renal
[15] = test system: NCI-H226 lung
[16] = test system: NCI-H23 lung
[17] = test system: KM12 colon
[18] = test system: SF-539 CNS
[19] = test system: RPMI-8226 leukemia
[20] = test system: U251 CNS
[21] = test system: A498 renal
[22] = test system: SNB-19 CNS
[23] = test system: SF-268 CNS
[24] = test system: HT29 colon
[25] = test system: SK-MEL-28 melanoma
[26] = test system: CCRF-CEM leukemia
[27] = test system: SNB-75 CNS
[28] = test system: TK-10 renal
[29] = test system: NCI/ADR-RES ovarian
[30] = test system: SK-OV-3 ovarian
[31] = test system: LOX IMVI melanoma
[32] = test system: OVCAR-3 ovarian
[33] = test system: CAKI-1 renal
[34] = test system: IGROV1 ovarian
[35] = test system: COLO 205 colon
[36] = test system: MALME-3M melanoma
[37] = test system: SW-620 colon
[38] = test system: SF-295 CNS
[39] = test system: SN12C renal
[40] = test system: NCI-H522 lung
[41] = test system: BT-549 breast
[42] = test system: DU-145 prostate
[43] = test system: HCT-15 colon
[44] = test system: T-47D breast
[45] = test system: A549 NSCLC
[46] = test system: HCC-2998 colon
[47] = test system: OVCAR-4 ovarian
[48] = test system: SR leukemia
[49] = test system: UACC-257 melanoma
[50] = test system: RXF 393 renal
[51] = test system: OVCAR-5 ovarian
[52] = test system: HL-60(TB) leukemia
[53] = test system: UACC-62 melanoma
[54] = test system: K-562 leukemia
[55] = test system: MOLT-4 leukemia
[56] = test system: M14 melanoma
[57] = test system: SK-MEL-5 melanoma
[58] = test system: MDA-MB-231 breast

CC(C)CCC[C@@H](C)[C@H]1CCC2C3=CCn4c(=O)ccc(=O)n4C3CC[C@@]21C (stereo partly specified) showed a GI50 [1] of 1340 nM, a TGI [1] of 2760 nM and a GI50 [2] of 886 nM. The TGI [2] was 2350 nM, the GI50 [3] was 220 nM and the TGI [3] was 645 nM. It also gave a GI50 [4] of 599 nM, a TGI [4] of 2030 nM and a GI50 [5] of 1840 nM. The TGI [5] was 5030 nM, the GI50 [6] was 557 nM and the TGI [6] was 1460 nM. For the same molecule, the GI50 [7] was 240 nM, the TGI [7] was 1390 nM and the GI50 [8] was 367 nM. It also gave a TGI [8] of 1590 nM, a GI50 [9] of 485 nM and a TGI [9] of 7550 nM. The GI50 [10] was 1160 nM, the TGI [10] was 2450 nM and the GI50 [11] was 1240 nM. The TGI [11] was 2940 nM, the GI50 [12] was 921 nM and the TGI [12] was 2180 nM. The GI50 [13] was 341 nM, the TGI [13] was 1400 nM and the GI50 [14] was 354 nM. It also gave a TGI [14] of 1480 nM, a GI50 [15] of 1430 nM and a TGI [15] of 3320 nM. The GI50 [16] was 1630 nM, the TGI [16] was 4180 nM and the GI50 [17] was 639 nM. The TGI [17] was 1800 nM, the GI50 [18] was 1430 nM and the TGI [18] was 2790 nM. The GI50 [19] was 243 nM, the TGI [19] was 1010 nM and the GI50 [20] was 645 nM. It also gave a TGI [20] of 1840 nM, a GI50 [21] of 1260 nM and a TGI [21] of 2540 nM. It also gave a GI50 [22] of 1590 nM, a TGI [22] of 3020 nM and a GI50 [23] of 1460 nM. The TGI [23] was 2870 nM, the GI50 [24] was 575 nM and the TGI [24] was 2060 nM. The GI50 [25] was 837 nM, the TGI [25] was 2100 nM and the GI50 [26] was 453 nM. For the same molecule, the TGI [26] was > 100000 nM, the GI50 [27] was 1010 nM and the TGI [27] was 2180 nM. For the same molecule, the GI50 [28] was 421 nM, the TGI [28] was 1430 nM and the GI50 [29] was 602 nM. It also gave a TGI [29] of 2350 nM, a GI50 [30] of 1780 nM and a TGI [30] of 3170 nM. The GI50 [31] was 482 nM, the TGI [31] was 1490 nM and the GI50 [32] was 740 nM. The TGI [32] was 2000 nM, the GI50 [33] was 460 nM and the TGI [33] was 1210 nM. It also gave a GI50 [34] of 698 nM, a TGI [34] of 2500 nM and a GI50 [35] of 449 nM. The TGI [35] was 1140 nM, the GI50 [36] was 1400 nM and the TGI [36] was 2920 nM. It also gave a GI50 [37] of 689 nM, a TGI [37] of 1940 nM and a GI50 [38] of 352 nM. The TGI [38] was 1280 nM, the GI50 [39] was 624 nM and the TGI [39] was 2030 nM. It also gave a GI50 [40] of 451 nM, a TGI [40] of 1170 nM and a GI50 [41] of 241 nM. The TGI [41] was 1140 nM, the GI50 [42] was 1240 nM and the TGI [42] was 2520 nM. For the same molecule, the GI50 [43] was 432 nM, the TGI [43] was 2050 nM and the GI50 [44] was 266 nM. For the same molecule, the TGI [44] was 1600 nM, the GI50 [45] was 325 nM and the TGI [45] was 1240 nM. It also gave a GI50 [46] of 708 nM, a TGI [46] of 2030 nM and a GI50 [47] of 910 nM. The TGI [47] was 2300 nM, the GI50 [48] was 137 nM and the TGI [48] was 758 nM. The GI50 [49] was 433 nM, the TGI [49] was 1550 nM and the GI50 [50] was 717 nM. The TGI [50] was 2310 nM, the GI50 [51] was 1160 nM and the TGI [51] was 2710 nM. It also gave a GI50 [52] of 113 nM, a TGI [52] of 490 nM and a GI50 [53] of 483 nM. For the same molecule, the TGI [53] was 1930 nM, the GI50 [54] was 309 nM and the TGI [54] was 2020 nM. For the same molecule, the GI50 [55] was 545 nM, the TGI [55] was 4130 nM and the GI50 [56] was 436 nM. For the same molecule, the TGI [56] was 1440 nM, the GI50 [57] was 844 nM and the TGI [57] was 2150 nM. For the same molecule, the GI50 [58] was 1180 nM and the TGI [58] was 2720 nM.

Reference: PubChem BioAssay (NCI)
